Reference: the NIST ThermoML archive (doi:10.1016/j.jct.2008.05.005)

Assay: xn = mol fraction of the nth substance listed
Conditions: Liquid, Vibrating tube method

CCCCn1cc[n+](C)c1.F[B-](F)(F)F [1-butyl-3-methylimidazolium tetrafluoroborate] + CO
Conditions | mass density [kg/m3]
298.15 K, 210 kPa, x1 = 0.9102 | 1203.93
298.15 K, 240 kPa, x1 = 0.2626 | 1065.61
298.15 K, 250 kPa, x1 = 0.4988 | 1144.91
298.15 K, 300 kPa, x1 = 0.1302 | 975.12
298.15 K, 310 kPa, x1 = 0.7501 | 1186.96
298.15 K, 380 kPa, x1 = 0.0087 | 804.76
298.15 K, 400 kPa, x1 = 0.0433 | 867.22
298.15 K, 4380 kPa, x1 = 0.0087 | 808.51
298.15 K, 5040 kPa, x1 = 0.9102 | 1206.16
298.15 K, 5080 kPa, x1 = 0.7501 | 1189.2
298.15 K, 5210 kPa, x1 = 0.2626 | 1068.88
298.15 K, 5270 kPa, x1 = 0.0433 | 871.22
298.15 K, 5310 kPa, x1 = 0.4988 | 1147.71
298.15 K, 5890 kPa, x1 = 0.1302 | 979.15
298.15 K, 10030 kPa, x1 = 0.7501 | 1191.5
298.15 K, 10030 kPa, x1 = 0.9102 | 1208.41
298.15 K, 10050 kPa, x1 = 0.4988 | 1150.25
298.15 K, 10080 kPa, x1 = 0.2626 | 1071.94
298.15 K, 10260 kPa, x1 = 0.0433 | 875.17
298.15 K, 10840 kPa, x1 = 0.1302 | 982.54
298.15 K, 10910 kPa, x1 = 0.0087 | 814.38
298.15 K, 15190 kPa, x1 = 0.0433 | 878.92
298.15 K, 15310 kPa, x1 = 0.9102 | 1210.74
298.15 K, 15330 kPa, x1 = 0.0087 | 818.18
298.15 K, 15380 kPa, x1 = 0.2626 | 1075.12
298.15 K, 15420 kPa, x1 = 0.7501 | 1193.96
298.15 K, 15620 kPa, x1 = 0.4988 | 1153.13
298.15 K, 15680 kPa, x1 = 0.1302 | 985.71
298.15 K, 19940 kPa, x1 = 0.0087 | 821.99
298.15 K, 20020 kPa, x1 = 0.0433 | 882.44
298.15 K, 20070 kPa, x1 = 0.9102 | 1212.8
298.15 K, 20140 kPa, x1 = 0.4988 | 1155.39
298.15 K, 20750 kPa, x1 = 0.2626 | 1078.17
298.15 K, 20890 kPa, x1 = 0.7501 | 1196.42
298.15 K, 20920 kPa, x1 = 0.1302 | 988.97
298.15 K, 25090 kPa, x1 = 0.2626 | 1080.52
298.15 K, 25120 kPa, x1 = 0.1302 | 991.46
298.15 K, 25410 kPa, x1 = 0.4988 | 1157.92
298.15 K, 25410 kPa, x1 = 0.9102 | 1215.05
298.15 K, 25420 kPa, x1 = 0.0433 | 886.2
298.15 K, 25680 kPa, x1 = 0.7501 | 1198.54
298.15 K, 25770 kPa, x1 = 0.0087 | 826.59
298.15 K, 30080 kPa, x1 = 0.0433 | 889.29
298.15 K, 30080 kPa, x1 = 0.7501 | 1200.46
298.15 K, 30090 kPa, x1 = 0.9102 | 1216.97
298.15 K, 30120 kPa, x1 = 0.2626 | 1083.1
298.15 K, 30410 kPa, x1 = 0.4988 | 1160.24
298.15 K, 30520 kPa, x1 = 0.0087 | 830.16
298.15 K, 31070 kPa, x1 = 0.1302 | 994.78
298.15 K, 35070 kPa, x1 = 0.2626 | 1085.49
298.15 K, 35290 kPa, x1 = 0.7501 | 1202.69
298.15 K, 35420 kPa, x1 = 0.0433 | 892.67
298.15 K, 35560 kPa, x1 = 0.1302 | 997.14
298.15 K, 35740 kPa, x1 = 0.0087 | 833.9
298.15 K, 35740 kPa, x1 = 0.4988 | 1162.61
298.15 K, 39560 kPa, x1 = 0.0433 | 895.16
298.15 K, 39780 kPa, x1 = 0.4988 | 1164.34
298.15 K, 39880 kPa, x1 = 0.0087 | 836.72
298.15 K, 39910 kPa, x1 = 0.7501 | 1204.65
298.15 K, 39910 kPa, x1 = 0.9102 | 1220.87
298.15 K, 39930 kPa, x1 = 0.9102 | 1220.88
298.15 K, 39960 kPa, x1 = 0.2626 | 1087.71
298.15 K, 40120 kPa, x1 = 0.1302 | 999.4
323.15 K, 230 kPa, x1 = 0.9102 | 1185.2
323.15 K, 240 kPa, x1 = 0.0087 | 781
323.15 K, 240 kPa, x1 = 0.7501 | 1168.14
323.15 K, 260 kPa, x1 = 0.1302 | 952.36
323.15 K, 440 kPa, x1 = 0.0433 | 844.94
323.15 K, 670 kPa, x1 = 0.2626 | 1046.2
323.15 K, 780 kPa, x1 = 0.4988 | 1126.41
323.15 K, 5040 kPa, x1 = 0.9102 | 1187.61
323.15 K, 5070 kPa, x1 = 0.7501 | 1170.7
323.15 K, 5310 kPa, x1 = 0.4988 | 1128.87
323.15 K, 5320 kPa, x1 = 0.2626 | 1049.53
323.15 K, 5430 kPa, x1 = 0.0433 | 849.82
323.15 K, 5440 kPa, x1 = 0.0087 | 786.6
323.15 K, 6310 kPa, x1 = 0.1302 | 957.29
323.15 K, 10030 kPa, x1 = 0.9102 | 1190.07
323.15 K, 10080 kPa, x1 = 0.2626 | 1052.82
323.15 K, 10090 kPa, x1 = 0.4988 | 1131.48
323.15 K, 10140 kPa, x1 = 0.1302 | 960.32
323.15 K, 10160 kPa, x1 = 0.0433 | 854.23
323.15 K, 10340 kPa, x1 = 0.7501 | 1173.44
323.15 K, 11020 kPa, x1 = 0.0087 | 792.32
323.15 K, 15060 kPa, x1 = 0.2626 | 1056.14
323.15 K, 15120 kPa, x1 = 0.1302 | 964.14
323.15 K, 15250 kPa, x1 = 0.0433 | 858.75
323.15 K, 15420 kPa, x1 = 0.4988 | 1134.4
323.15 K, 15430 kPa, x1 = 0.7501 | 1176.04
323.15 K, 15440 kPa, x1 = 0.0087 | 796.64
323.15 K, 15470 kPa, x1 = 0.9102 | 1192.72
323.15 K, 20070 kPa, x1 = 0.7501 | 1178.36
323.15 K, 20090 kPa, x1 = 0.9102 | 1194.92
323.15 K, 20110 kPa, x1 = 0.1302 | 967.85
323.15 K, 20340 kPa, x1 = 0.0433 | 863.04
323.15 K, 20430 kPa, x1 = 0.2626 | 1059.59
323.15 K, 20640 kPa, x1 = 0.0087 | 801.47
323.15 K, 20740 kPa, x1 = 0.4988 | 1137.33
323.15 K, 25030 kPa, x1 = 0.4988 | 1139.71
323.15 K, 25090 kPa, x1 = 0.7501 | 1180.84
323.15 K, 25120 kPa, x1 = 0.1302 | 971.44
323.15 K, 25310 kPa, x1 = 0.9102 | 1197.38
323.15 K, 25630 kPa, x1 = 0.0433 | 867.24
323.15 K, 25660 kPa, x1 = 0.0087 | 805.89
323.15 K, 25810 kPa, x1 = 0.2626 | 1062.91
323.15 K, 29940 kPa, x1 = 0.0433 | 870.48
323.15 K, 30010 kPa, x1 = 0.4988 | 1142.47
323.15 K, 30090 kPa, x1 = 0.2626 | 1065.44
323.15 K, 30410 kPa, x1 = 0.7501 | 1183.41
323.15 K, 30440 kPa, x1 = 0.1302 | 975.12
323.15 K, 30450 kPa, x1 = 0.9102 | 1199.76
323.15 K, 30560 kPa, x1 = 0.0087 | 809.96
323.15 K, 35210 kPa, x1 = 0.0433 | 874.21
323.15 K, 35240 kPa, x1 = 0.2626 | 1068.37
323.15 K, 35240 kPa, x1 = 0.4988 | 1145.39
323.15 K, 35240 kPa, x1 = 0.7501 | 1185.69
323.15 K, 35450 kPa, x1 = 0.0087 | 813.8
323.15 K, 35620 kPa, x1 = 0.1302 | 978.57
323.15 K, 35860 kPa, x1 = 0.9102 | 1202.22
323.15 K, 39410 kPa, x1 = 0.0087 | 816.73
323.15 K, 39620 kPa, x1 = 0.1302 | 981.14
323.15 K, 39860 kPa, x1 = 0.9102 | 1204.01
323.15 K, 39890 kPa, x1 = 0.0433 | 877.31
323.15 K, 39890 kPa, x1 = 0.7501 | 1187.86
323.15 K, 39970 kPa, x1 = 0.2626 | 1070.95
323.15 K, 39970 kPa, x1 = 0.4988 | 1148.04
348.15 K, 340 kPa, x1 = 0.1302 | 931.46
348.15 K, 420 kPa, x1 = 0.9102 | 1166.95
348.15 K, 610 kPa, x1 = 0.4988 | 1107.55
348.15 K, 640 kPa, x1 = 0.0087 | 757.2
348.15 K, 710 kPa, x1 = 0.0433 | 821.46
348.15 K, 860 kPa, x1 = 0.2626 | 1026.35
348.15 K, 870 kPa, x1 = 0.7501 | 1150.03
348.15 K, 5060 kPa, x1 = 0.2626 | 1029.49
348.15 K, 5070 kPa, x1 = 0.7501 | 1152.55
348.15 K, 5310 kPa, x1 = 0.9102 | 1169.75
348.15 K, 5370 kPa, x1 = 0.0433 | 826.71
348.15 K, 5410 kPa, x1 = 0.4988 | 1110.43
348.15 K, 5710 kPa, x1 = 0.1302 | 936.68
348.15 K, 6020 kPa, x1 = 0.0087 | 763.72
348.15 K, 10060 kPa, x1 = 0.4988 | 1113.45
348.15 K, 10060 kPa, x1 = 0.7501 | 1155.48
348.15 K, 10070 kPa, x1 = 0.9102 | 1172.42
348.15 K, 10410 kPa, x1 = 0.2626 | 1033.58
348.15 K, 10670 kPa, x1 = 0.0433 | 832.4
348.15 K, 10820 kPa, x1 = 0.1302 | 941.38
348.15 K, 10960 kPa, x1 = 0.0087 | 769.43
348.15 K, 15090 kPa, x1 = 0.2626 | 1037.07
348.15 K, 15120 kPa, x1 = 0.0087 | 774.02
348.15 K, 15120 kPa, x1 = 0.4988 | 1116.66
348.15 K, 15140 kPa, x1 = 0.1302 | 945.16
348.15 K, 15150 kPa, x1 = 0.0433 | 836.97
348.15 K, 15420 kPa, x1 = 0.9102 | 1175.35
348.15 K, 15870 kPa, x1 = 0.7501 | 1158.8
348.15 K, 20070 kPa, x1 = 0.4988 | 1119.71
348.15 K, 20080 kPa, x1 = 0.7501 | 1161.16
348.15 K, 20110 kPa, x1 = 0.0433 | 841.77
